From patent publication US12527886B2, “Radiopharmaceuticals and composition for thrombus imaging” (THE ASAN FOUNDATION, priority 2020, dated 2026)

Assay: Stability of Tc-99m labeled compound, labeling purity by HPLC
Type: physicochemical
Protocol: 2 mL of Tc-99m was added dropwise to a lyophilized vial including 0.1 mg of GP-104, 15 μg of SnCl2, and 10 μg of cysteine, the vial was allowed to stand at room temperature for 10 minutes, and the reaction was terminated by adjusting pH to 7 using a NaOH solution. Labeling purity was confirmed to be 93.21% by HPLC (analysis conditions: Luna C18 250×4.6 mm, phosphate buffer:acetonitrile (100:0, 0 to 5 minutes; 80:20, 5 to 10 minutes; 80:20, 17 minutes; 100:0, 17.1 minutes). 100:0. 20 min), 1.0 mL/min, UV=280 nm).
In order to confirm the effect of cysteine addition after the reaction, the following experiment was performed: 0.1 mg of GP-104 was dissolved in water for injection, the pH was adjusted to about 3.5 when 10 μL of SnCl2 (1.5 mg/mL) and 2 mL of Tc-99m were added thereto, and the resulting mixture was allowed to stand at room temperature for 10 minutes. The reaction was terminated by adjusting the pH to 7 using a NaOH solution and 10 μL of cysteine (1.0 mg/mL). Labeling purity was confirmed to be 91.4% using HPLC in the same manner as in Example 2-7.
After 0.1 mg of GP-104 was dissolved in water for injection, pH was adjusted to about 3.5 and the resulting solution was allowed to stand at room temperature for 10 minutes when 10 μL of SnCl2 (1.5 mg/mL), 10 μL of cysteine (1.0 mg/mL) and 2 mL of Tc-99m were added thereto, and the reaction was terminated by adjusting the pH to 7 using a NaOH solution. Labeling purity was confirmed to be 94.84% using HPLC in the same manner as in Example 2-7.
HCl and NaOH was additionally added dropwise to the solution of Example 2-8 to perform a stability evaluation by adjusting the final pH of the solution to acidic (pH 5.5) and basic (pH 8.5) conditions, and labeling purity was confirmed using HPLC in the same manner as in Example 2-7.
HCl and NaOH was additionally added dropwise to the solution of Example 2-9 to perform a stability evaluation by adjusting the final pH of the solution to acidic (pH 5.5) and basic (pH 8.5) conditions, and labeling purity was confirmed using HPLC in the same manner as in Example 2-7.
HCl and NaOH was additionally added dropwise to the solution of Example 2-10 to perform a stability evaluation by adjusting the final pH of the solution to acidic (pH 5.5) and basic (pH 8.5) conditions, and labeling purity was confirmed using HPLC in the same manner as in Example 2-7.
0.1 mg of GP-105 was dissolved in water for injection, the pH was adjusted to about 3.5 when 10 μL of SnCl2 (1.5 mg/mL) and 2 mL of Tc-99m were added thereto, and the resulting mixture was allowed to stand at room temperature for 10 minutes. The reaction was terminated by adjusting the pH to 7 using a NaOH solution and 10 μL of cysteine (1.0 mg/mL). Labeling purity was confirmed to be 98.1% using HPLC in the same manner as in Example 2-7.
HCl and NaOH was additionally added dropwise to the solution of Example 2-12 to perform a stability evaluation by adjusting the final pH of the solution to acidic (pH 5.5) and basic (pH 8.5) conditions, and labeling purity was confirmed using HPLC in the same manner as in Example 2-7.
HCl and NaOH was additionally added dropwise to the solution of Example 2-13 to perform a stability evaluation by adjusting the final pH of the solution to acidic (pH 5.5) and basic (pH 8.5) conditions, and labeling purity was confirmed using HPLC in the same manner as in Example 2-7.
HCl and NaOH was additionally added dropwise to the solution of Example 2-14 to perform a stability evaluation by adjusting the final pH of the solution to acidic (pH 5.5) and basic (pH 8.5) conditions, and labeling purity was confirmed using HPLC in the same manner as in Example 2-7.

## O=C(O)C[C@H](NC(=O)[C@@H]1CCCN(C(=O)CCC2CCNCC2)C1)c1cncc(OCCNC(=O)CN2CC(=O)[O][99Tc-]3([O]C(=O)C2)[O]C(=O)CN(CC(=O)NCCOc2cncc([C@H](CC(=O)O)NC(=O)[C@@H]4CCCN(C(=O)CCC5CCNCC5)C4)c2)CC(=O)[O]3)c1 [[Tc-99m]GP-105]
Ex 4-3, addition of cysteine after reaction, NaOH mixed, 0 hour
  radiochemical purity (HPLC): 98.06%
Ex 4-3, addition of cysteine after reaction, NaOH mixed, 1 hour
  radiochemical purity (HPLC): 95.17%
Ex 4-3, addition of cysteine after reaction, NaOH mixed, 2 hours
  radiochemical purity (HPLC): 94.14%
Ex 4-3, addition of cysteine after reaction, NaOH mixed, 3 hours
  radiochemical purity (HPLC): 91.91%
Ex 4-3, addition of cysteine after reaction, NaOH mixed, 4 hours
  radiochemical purity (HPLC): 89.00%
Ex 4-3, addition of cysteine after reaction, NaOH separately, 0 hour
  radiochemical purity (HPLC): 99.39%
Ex 4-3, addition of cysteine after reaction, NaOH separately, 1 hour
  radiochemical purity (HPLC): 99.04%
Ex 4-3, addition of cysteine after reaction, NaOH separately, 2 hours
  radiochemical purity (HPLC): 97.02%
Ex 4-3, addition of cysteine after reaction, NaOH separately, 3 hours
  radiochemical purity (HPLC): 91.14%
Ex 4-3, addition of cysteine after reaction, NaOH separately, 4 hours
  radiochemical purity (HPLC): 66.87%
Solution of Example 2-12 (165 nmol cysteine), pH 5.5, 0 hr
  radiochemical purity (HPLC): 100%
Solution of Example 2-12 (165 nmol cysteine), pH 5.5, 2 hr
  radiochemical purity (HPLC): 85.49%
Solution of Example 2-12 (165 nmol cysteine), pH 5.5, 4 hr
  radiochemical purity (HPLC): 82.11%
Solution of Example 2-12 (165 nmol cysteine), pH 7, 0 hr
  radiochemical purity (HPLC): 100%
Solution of Example 2-12 (165 nmol cysteine), pH 7, 2 hr
  radiochemical purity (HPLC): 94.88%
Solution of Example 2-12 (165 nmol cysteine), pH 7, 4 hr
  radiochemical purity (HPLC): 85.55%
Solution of Example 2-12 (165 nmol cysteine), pH 8.5, 0 hr
  radiochemical purity (HPLC): 100%
Solution of Example 2-12 (165 nmol cysteine), pH 8.5, 2 hr
  radiochemical purity (HPLC): 50.64%
Solution of Example 2-12 (165 nmol cysteine), pH 8.5, 4 hr
  radiochemical purity (HPLC): 23.98%
Solution of Example 2-13 (82.5 nmol cysteine + 82.5 nmol VB1), pH 5.5, 0 hr
  radiochemical purity (HPLC): 100%
Solution of Example 2-13 (82.5 nmol cysteine + 82.5 nmol VB1), pH 5.5, 2 hr
  radiochemical purity (HPLC): 100%
Solution of Example 2-13 (82.5 nmol cysteine + 82.5 nmol VB1), pH 5.5, 4 hr
  radiochemical purity (HPLC): 98.63%
Solution of Example 2-13 (82.5 nmol cysteine + 82.5 nmol VB1), pH 7, 0 hr
  radiochemical purity (HPLC): 100%
Solution of Example 2-13 (82.5 nmol cysteine + 82.5 nmol VB1), pH 7, 2 hr
  radiochemical purity (HPLC): 100%
Solution of Example 2-13 (82.5 nmol cysteine + 82.5 nmol VB1), pH 7, 4 hr
  radiochemical purity (HPLC): 94.88%
Solution of Example 2-13 (82.5 nmol cysteine + 82.5 nmol VB1), pH 8.5, 0 hr
  radiochemical purity (HPLC): 100%
Solution of Example 2-13 (82.5 nmol cysteine + 82.5 nmol VB1), pH 8.5, 2 hr
  radiochemical purity (HPLC): 94.13%
Solution of Example 2-13 (82.5 nmol cysteine + 82.5 nmol VB1), pH 8.5, 4 hr
  radiochemical purity (HPLC): 90.17%
